{
  "source": "patent EP1383793B1",
  "about": "(priority 2000, dated 2001)",
  "note": "Residues, ends and D or L forms follow the SMILES beside them. No end group written: not given here.",
  "data": [
    {"system": "adipocytes", "assay": "3H-glucose uptake into adipocytes (fat cell assay, FFC)", "assay_type": "cell-based, Mouse", "set-up": "key to FFC: 0 is no effect; + is agonist; - is antagonist", "values": [
      {"compound": "CC(C)C[C@H](NC(=O)[C@H](CCC(=O)O)NC(=O)[C@H](C)NC(=O)[C@@H](NC(=O)[C@H](Cc1ccccc1)NC(=O)[C@H](Cc1c[nH]c2ccccc12)NC(=O)[C@H](CC(=O)O)NC(=O)[C@H](Cc1ccc(O)cc1)NC(=O)[C@H](Cc1ccccc1)NC(=O)[C@H](CC(N)=O)NC(=O)[C@H](C)NC(=O)[C@H](CC(N)=O)NC(=O)[C@H](CCCNC(=N)N)NC(=O)[C@H](CCC(N)=O)NC(=O)[C@H](CC(C)C)NC(=O)[C@@H](N)Cc1c[nH]c2ccccc12)C(C)C)C(=O)NCC(=O)O", "note": "[Clone S237]", "FFC": 0},
      {"compound": "CC(C)C[C@H](NC(=O)[C@H](CCC(=O)O)NC(=O)[C@H](C)NC(=O)[C@@H](NC(=O)[C@H](Cc1ccccc1)NC(=O)[C@H](Cc1c[nH]c2ccccc12)NC(=O)[C@H](CC(=O)O)NC(=O)[C@H](Cc1ccc(O)cc1)NC(=O)[C@H](Cc1ccccc1)NC(=O)[C@H](CC(N)=O)NC(=O)[C@H](C)NC(=O)[C@H](CC(N)=O)NC(=O)[C@H](CCCNC(=N)N)NC(=O)[C@H](CCC(N)=O)NC(=O)[C@@H](N)CC(C)C)C(C)C)C(=O)NCC(=O)O", "note": "[Clone S238]", "FFC": 0},
      {"compound": "CC(C)C[C@H](NC(=O)[C@H](CCC(=O)O)NC(=O)[C@H](C)NC(=O)[C@@H](NC(=O)[C@H](Cc1ccccc1)NC(=O)[C@H](Cc1c[nH]c2ccccc12)NC(=O)[C@H](CC(=O)O)NC(=O)[C@H](Cc1ccc(O)cc1)NC(=O)[C@H](Cc1ccccc1)NC(=O)[C@H](CC(N)=O)NC(=O)[C@H](C)NC(=O)[C@H](CC(N)=O)NC(=O)[C@H](CCCNC(=N)N)NC(=O)[C@@H](N)CCC(N)=O)C(C)C)C(=O)NCC(=O)O", "note": "[Clone S239]", "FFC": 0},
      {"compound": "CC(C)C[C@@H]1NC(=O)[C@H](CO)NC(=O)[C@H](C)NC(=O)CNC(=O)CNC(=O)[C@H](Cc2ccccc2)NC(=O)[C@H](CC(C)C)NC(=O)[C@H](CCC(=O)O)NC(=O)[C@H](CCC(N)=O)NC(=O)[C@H](CC(C)C)NC(=O)[C@H](Cc2ccccc2)NC(=O)[C@@H](NC(=O)[C@H](CC(C)C)NC(=O)[C@@H]2CCCN2)CSSC[C@@H](C(=O)N[C@@H](CO)C(=O)NCC(N)=O)NC(=O)[C@H](Cc2ccc(O)cc2)NC(=O)CNC(=O)CNC1=O", "note": "[Clone S262] (HELM PEPTIDE1{P.L.C.F.L.Q.E.L.F.G.G.A.S.L.G.G.Y.C.S.G.[am]}$PEPTIDE1,PEPTIDE1,3:R3-18:R3$$$V2.0; N-terminus assumed; bridges inferred)", "FFC": 0},
      {"compound": "CC[C@H](C)[C@@H]1NC(=O)[C@H](CCC(=O)O)NC(=O)[C@@H](NC(=O)[C@H](Cc2c[nH]c3ccccc23)NC(=O)[C@@H](NC(=O)[C@H](Cc2c[nH]c3ccccc23)NC(=O)[C@H](C)NC(=O)[C@H](CCCNC(=N)N)NC(=O)[C@H](CCC(=O)O)NC(=O)[C@H](CCC(N)=O)NC(=O)[C@H](CCC(=O)O)NC(=O)[C@H](CC(C)C)NC(=O)[C@@H](N)Cc2c[nH]c3ccccc23)[C@@H](C)CC)CSSC[C@@H](C(=O)N[C@@H](CCCNC(=N)N)C(=O)N[C@@H](C)C(N)=O)NC(=O)CNC(=O)[C@H](CO)NC(=O)CNC(=O)[C@H](CCC(N)=O)NC1=O", "note": "[Clone S263] (HELM PEPTIDE1{W.L.E.Q.E.R.A.W.I.W.C.E.I.Q.G.S.G.C.R.A.[am]}$PEPTIDE1,PEPTIDE1,11:R3-18:R3$$$V2.0; N-terminus assumed; bridges inferred)", "FFC": 0},
      {"compound": "CC(C)C[C@@H]1NC(=O)[C@H](CCC(=O)O)NC(=O)[C@@H](NC(=O)[C@H](CC(C)C)NC(=O)[C@@H](NC(=O)[C@H](CCCNC(=N)N)NC(=O)[C@H](CC(C)C)NC(=O)[C@@H](N)CC(=O)O)C(C)C)CSSC[C@@H](C(=O)N[C@@H](CO)C(=O)N[C@@H](CCC(=O)O)C(N)=O)NC(=O)[C@H](Cc2ccc(O)cc2)NC(=O)CNC(=O)[C@H](CC(C)C)NC(=O)[C@H](C(C)C)NC(=O)[C@H](Cc2ccc(O)cc2)NC(=O)[C@H](C)NC(=O)CNC(=O)CNC(=O)[C@H](Cc2ccccc2)NC1=O", "note": "[Clone S281] (HELM PEPTIDE1{D.L.R.V.L.C.E.L.F.G.G.A.Y.V.L.G.Y.C.S.E.[am]}$PEPTIDE1,PEPTIDE1,6:R3-18:R3$$$V2.0; N-terminus assumed; bridges inferred)", "FFC": 0},
      {"compound": "EFHENFYDWFVRQVSEE [Clone S115]", "FFC": "+"},
      {"compound": "FHENAYDWFVRQVSKK [Clone S219]", "FFC": 0}
    ]}
  ]
}
